Measured values reported in ChEMBL document CHEMBL6103545, “Discovery of GS-2278, a Potent and Selective LPAR1 Antagonist for the Treatment of Idiopathic Pulmonary Fibrosis” (J Med Chem, 2025).

What was measured:
BCRP (human) = assay: Apparent permeability from basolateral to apical side of human BCRP transfected MDCK cells measured after 20 min by LC/MS/MS analysis; type: ADME, cell-based, Canis lupus familiaris; conditions: dog
[1] = target: Lysophosphatidic acid receptor 5 (Homo sapiens, UniProt Q9H1C0); assay: Antagonist activity at human LPA5 receptor overexpressed in CHO cells pre-incubated for 1 hr followed by LPA addition by fluorescence based FLIPR calcium assay; type: functional, cell-based
Lysophosphatidic acid receptor 5, sequence (Q9H1C0 whole entry): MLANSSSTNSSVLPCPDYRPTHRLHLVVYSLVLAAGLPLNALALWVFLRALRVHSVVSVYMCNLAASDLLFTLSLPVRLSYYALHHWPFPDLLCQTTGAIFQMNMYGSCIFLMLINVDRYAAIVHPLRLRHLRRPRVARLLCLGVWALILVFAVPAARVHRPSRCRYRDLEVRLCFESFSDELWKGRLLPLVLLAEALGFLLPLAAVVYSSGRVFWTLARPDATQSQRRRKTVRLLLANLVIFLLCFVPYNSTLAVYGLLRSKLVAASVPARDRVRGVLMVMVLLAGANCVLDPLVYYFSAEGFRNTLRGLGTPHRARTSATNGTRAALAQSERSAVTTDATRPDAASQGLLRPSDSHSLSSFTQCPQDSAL

[2] = Plasma protein binding in Beagle dog assessed as unbound fraction at 2 uM incubated for 24 hrs by LC-MS analysis; type: ADME, cell-free, Canis lupus familiaris
[3] = AUC (0 to 24 hrs) in Beagle dog at 5 mg/kg, po measured after 24 hrs by LC/MS/MS analysis; type: ADME, organism-based, Canis lupus familiaris; conditions: in vivo
[4] = target: T1, Lysophosphatidic acid receptor 1 (Homo sapiens, UniProt Q92633); assay: Antagonist activity at human LPA1 receptor expressed in HEK293 cells assessed as Galpha13 effector recruitment incubated for 10 mins by BRET assay; type: functional, cell-based
T1 sequence (Q92633 whole entry): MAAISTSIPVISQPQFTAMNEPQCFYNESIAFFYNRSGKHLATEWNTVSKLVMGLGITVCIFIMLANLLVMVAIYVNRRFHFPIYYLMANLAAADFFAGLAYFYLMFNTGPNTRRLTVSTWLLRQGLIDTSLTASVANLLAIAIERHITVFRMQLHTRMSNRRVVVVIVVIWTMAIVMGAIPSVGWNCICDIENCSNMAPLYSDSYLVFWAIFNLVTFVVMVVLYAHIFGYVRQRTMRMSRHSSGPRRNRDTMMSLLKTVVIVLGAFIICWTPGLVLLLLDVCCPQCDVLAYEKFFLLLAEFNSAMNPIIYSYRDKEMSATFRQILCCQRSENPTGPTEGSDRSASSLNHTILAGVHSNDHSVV

[5] = Oral bioavailability in Beagle dog at 5 mg/kg measured after 24 hrs by LC/MS/MS analysis; type: ADME, organism-based, Canis lupus familiaris; conditions: in vivo
[6] = Toxicity in Beagle dog CNS at 20 mg/kg/day, po measured after 28 days by radiotelemetry; type: organism-based, Canis lupus familiaris; conditions: in vivo, 672 h, time 28 day
Cytochrome P450 3A4 = Cytochrome P450 3A4 (Homo sapiens, UniProt P08684); assay: Inhibition of CYP3A4 (unknown origin) using testosterone as substrate; type: ADME
Cytochrome P450 3A4, sequence (P08684 whole entry): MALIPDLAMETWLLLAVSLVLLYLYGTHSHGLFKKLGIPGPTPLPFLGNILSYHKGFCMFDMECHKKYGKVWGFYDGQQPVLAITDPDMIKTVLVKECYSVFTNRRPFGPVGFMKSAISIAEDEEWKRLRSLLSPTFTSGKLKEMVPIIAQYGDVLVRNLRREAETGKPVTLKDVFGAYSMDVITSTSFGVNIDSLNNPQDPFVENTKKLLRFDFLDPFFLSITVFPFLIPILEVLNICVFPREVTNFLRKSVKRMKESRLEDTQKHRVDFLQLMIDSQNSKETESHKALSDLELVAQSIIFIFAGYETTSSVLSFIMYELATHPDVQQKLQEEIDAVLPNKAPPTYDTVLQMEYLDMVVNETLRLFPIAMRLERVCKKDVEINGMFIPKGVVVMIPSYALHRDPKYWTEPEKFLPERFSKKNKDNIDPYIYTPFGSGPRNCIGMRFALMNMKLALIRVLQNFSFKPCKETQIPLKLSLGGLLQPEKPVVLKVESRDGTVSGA

[7] = Half-life in male Sprague-Dawley rat at 5 mg/kg, po measured after 24 hrs by LC/MS/MS analysis; type: ADME, organism-based; conditions: in vivo
[8] = Plasma protein binding in female CD-1 mouse assessed as unbound fraction at 2 uM incubated for 24 hrs by LC-MS analysis; type: ADME, cell-free
[9] = target: T1, Lysophosphatidic acid receptor 1; assay: Antagonist activity at human LPA1 receptor overexpressed in CHO cells pre-incubated for 1 hr followed by LPA addition by fluorescence based FLIPR calcium assay; type: functional, cell-based
[10] = target: Voltage-gated inwardly rectifying potassium channel KCNH2 (Homo sapiens, UniProt Q12809); assay: Inhibition of human ERG; type: toxicity
Voltage-gated inwardly rectifying potassium channel KCNH2, sequence (Q12809 whole entry): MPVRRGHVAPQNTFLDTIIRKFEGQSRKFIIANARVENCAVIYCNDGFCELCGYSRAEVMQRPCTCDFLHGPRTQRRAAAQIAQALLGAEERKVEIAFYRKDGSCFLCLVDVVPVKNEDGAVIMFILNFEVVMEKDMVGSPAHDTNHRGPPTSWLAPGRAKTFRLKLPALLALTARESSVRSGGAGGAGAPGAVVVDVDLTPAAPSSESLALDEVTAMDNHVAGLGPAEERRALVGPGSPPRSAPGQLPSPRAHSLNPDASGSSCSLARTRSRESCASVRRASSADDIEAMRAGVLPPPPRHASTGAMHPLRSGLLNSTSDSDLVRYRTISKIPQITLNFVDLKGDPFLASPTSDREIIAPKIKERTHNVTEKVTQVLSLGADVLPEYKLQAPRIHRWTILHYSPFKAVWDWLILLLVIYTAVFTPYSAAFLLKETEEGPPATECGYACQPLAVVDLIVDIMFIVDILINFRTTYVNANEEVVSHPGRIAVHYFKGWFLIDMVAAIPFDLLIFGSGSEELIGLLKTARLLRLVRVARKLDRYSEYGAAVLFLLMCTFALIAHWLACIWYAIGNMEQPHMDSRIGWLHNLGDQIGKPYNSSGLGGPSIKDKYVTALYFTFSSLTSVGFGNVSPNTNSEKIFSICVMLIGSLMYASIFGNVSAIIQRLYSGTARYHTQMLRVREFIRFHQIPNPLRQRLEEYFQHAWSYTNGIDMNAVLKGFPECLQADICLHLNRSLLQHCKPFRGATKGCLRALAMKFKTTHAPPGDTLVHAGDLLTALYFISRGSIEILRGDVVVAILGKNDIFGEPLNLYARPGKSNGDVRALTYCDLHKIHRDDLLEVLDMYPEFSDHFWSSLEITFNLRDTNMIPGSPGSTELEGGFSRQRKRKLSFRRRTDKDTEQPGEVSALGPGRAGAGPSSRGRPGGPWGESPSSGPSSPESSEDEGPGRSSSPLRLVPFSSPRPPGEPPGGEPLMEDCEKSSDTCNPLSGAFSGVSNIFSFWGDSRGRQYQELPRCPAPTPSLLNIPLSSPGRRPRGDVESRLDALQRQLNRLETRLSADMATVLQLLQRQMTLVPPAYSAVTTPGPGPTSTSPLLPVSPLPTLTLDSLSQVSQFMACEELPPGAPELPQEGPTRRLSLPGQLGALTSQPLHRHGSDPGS

[11] = Metabolic stability in cynomolgus monkey liver microsomes assessed as intrinsic clearance at 1 uM by LC/MS/MS analysis; type: ADME, Macaca fascicularis, Microsome; conditions: read-out: CLH (converted)
Bile salt export pump = Bile salt export pump (Homo sapiens, UniProt O95342); assay: Inhibition of BSEP in human hepatocyte by LC-MS analysis; type: cell-based
Bile salt export pump, sequence (O95342 whole entry): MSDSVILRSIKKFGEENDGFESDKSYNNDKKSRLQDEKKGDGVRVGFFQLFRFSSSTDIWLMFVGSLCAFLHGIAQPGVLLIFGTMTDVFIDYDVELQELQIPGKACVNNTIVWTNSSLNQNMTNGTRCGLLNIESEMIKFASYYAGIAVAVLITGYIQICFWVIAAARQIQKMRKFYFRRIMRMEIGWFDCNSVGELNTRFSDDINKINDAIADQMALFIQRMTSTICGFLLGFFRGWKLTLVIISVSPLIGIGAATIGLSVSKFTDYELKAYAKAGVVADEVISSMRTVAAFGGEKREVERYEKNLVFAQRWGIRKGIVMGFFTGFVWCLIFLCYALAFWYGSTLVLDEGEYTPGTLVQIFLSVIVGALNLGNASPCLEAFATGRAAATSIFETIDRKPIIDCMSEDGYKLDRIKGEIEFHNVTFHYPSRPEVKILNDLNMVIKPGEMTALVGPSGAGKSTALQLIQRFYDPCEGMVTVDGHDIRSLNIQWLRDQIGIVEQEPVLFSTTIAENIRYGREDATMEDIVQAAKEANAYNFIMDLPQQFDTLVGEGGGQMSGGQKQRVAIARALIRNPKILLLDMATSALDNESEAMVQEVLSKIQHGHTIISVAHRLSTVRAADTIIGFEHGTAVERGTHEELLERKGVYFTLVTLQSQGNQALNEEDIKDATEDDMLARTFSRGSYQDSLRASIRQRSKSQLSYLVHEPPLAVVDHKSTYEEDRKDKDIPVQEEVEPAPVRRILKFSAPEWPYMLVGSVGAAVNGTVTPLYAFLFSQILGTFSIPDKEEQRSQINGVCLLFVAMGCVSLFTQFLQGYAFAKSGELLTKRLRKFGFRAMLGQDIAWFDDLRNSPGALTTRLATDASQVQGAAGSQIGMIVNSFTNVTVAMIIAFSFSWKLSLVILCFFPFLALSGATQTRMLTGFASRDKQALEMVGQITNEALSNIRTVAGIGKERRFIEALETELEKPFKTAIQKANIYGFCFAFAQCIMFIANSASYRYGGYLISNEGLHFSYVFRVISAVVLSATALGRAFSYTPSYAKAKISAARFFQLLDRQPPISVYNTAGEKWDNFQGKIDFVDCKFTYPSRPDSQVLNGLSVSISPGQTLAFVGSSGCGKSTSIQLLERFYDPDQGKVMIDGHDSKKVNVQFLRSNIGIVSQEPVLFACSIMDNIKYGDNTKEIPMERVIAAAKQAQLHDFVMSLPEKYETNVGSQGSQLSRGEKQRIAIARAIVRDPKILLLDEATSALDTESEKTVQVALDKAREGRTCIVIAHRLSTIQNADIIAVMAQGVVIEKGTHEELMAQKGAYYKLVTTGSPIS

[12] = target: T1, Lysophosphatidic acid receptor 1; assay: Antagonist activity at LPA1 receptor in serum starved human TWNT-4 cells assessed as nuclear translocation pre-incubated for 1 hr followed by LPA stimulation and measured after 30 min by MRTF-A assay; type: cell-based
Cytochrome P450 2B6 = target: T2, Cytochrome P450 2B6 (Homo sapiens, UniProt P20813); assay: Inhibition of CYP2B6 (unknown origin) using midazolam as substrate; type: ADME
T2 sequence (P20813 whole entry): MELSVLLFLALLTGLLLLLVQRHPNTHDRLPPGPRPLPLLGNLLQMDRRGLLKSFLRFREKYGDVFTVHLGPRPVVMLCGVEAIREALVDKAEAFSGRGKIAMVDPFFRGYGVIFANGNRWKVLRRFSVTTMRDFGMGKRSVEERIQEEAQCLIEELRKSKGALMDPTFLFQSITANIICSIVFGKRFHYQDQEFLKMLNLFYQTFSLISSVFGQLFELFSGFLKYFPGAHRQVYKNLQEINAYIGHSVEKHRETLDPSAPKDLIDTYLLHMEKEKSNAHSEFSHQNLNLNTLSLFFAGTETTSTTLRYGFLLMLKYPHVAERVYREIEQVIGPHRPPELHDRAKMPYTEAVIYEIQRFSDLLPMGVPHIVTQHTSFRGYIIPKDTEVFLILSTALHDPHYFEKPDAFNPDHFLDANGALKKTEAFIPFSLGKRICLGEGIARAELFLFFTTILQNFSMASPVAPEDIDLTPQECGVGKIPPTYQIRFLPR

Cytochrome P450 2C9 = Cytochrome P450 2C9 (Homo sapiens, UniProt P11712); assay: Inhibition of CYP2C9 (unknown origin) using midazolam as substrate; type: ADME
Cytochrome P450 2C9, sequence (P11712 whole entry): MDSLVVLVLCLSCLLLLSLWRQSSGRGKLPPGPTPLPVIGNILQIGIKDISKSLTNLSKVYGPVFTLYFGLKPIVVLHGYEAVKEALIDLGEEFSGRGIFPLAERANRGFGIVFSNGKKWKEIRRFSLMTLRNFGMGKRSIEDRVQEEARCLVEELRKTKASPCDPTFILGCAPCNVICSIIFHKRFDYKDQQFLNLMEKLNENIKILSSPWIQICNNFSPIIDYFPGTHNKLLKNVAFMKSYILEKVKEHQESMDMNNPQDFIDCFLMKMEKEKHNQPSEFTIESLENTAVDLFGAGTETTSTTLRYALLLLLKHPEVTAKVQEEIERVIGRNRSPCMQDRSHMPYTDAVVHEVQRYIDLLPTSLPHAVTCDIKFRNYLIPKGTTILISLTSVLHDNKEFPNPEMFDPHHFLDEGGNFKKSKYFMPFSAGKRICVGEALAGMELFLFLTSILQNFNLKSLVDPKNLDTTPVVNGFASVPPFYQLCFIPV

[13] = Toxicity in Beagle dog CNS at 30 mg/kg/day, po measured after 28 days by radiotelemetry; type: organism-based, Canis lupus familiaris; conditions: in vivo, 672 h, time 28 day
[14] = target: T3, Solute carrier organic anion transporter family member 1B1 (Homo sapiens, UniProt Q9Y6L6); assay: Inhibition of OATPB1P1 in human hepatocyte by LC-MS analysis; type: cell-based
T3 sequence (Q9Y6L6 whole entry): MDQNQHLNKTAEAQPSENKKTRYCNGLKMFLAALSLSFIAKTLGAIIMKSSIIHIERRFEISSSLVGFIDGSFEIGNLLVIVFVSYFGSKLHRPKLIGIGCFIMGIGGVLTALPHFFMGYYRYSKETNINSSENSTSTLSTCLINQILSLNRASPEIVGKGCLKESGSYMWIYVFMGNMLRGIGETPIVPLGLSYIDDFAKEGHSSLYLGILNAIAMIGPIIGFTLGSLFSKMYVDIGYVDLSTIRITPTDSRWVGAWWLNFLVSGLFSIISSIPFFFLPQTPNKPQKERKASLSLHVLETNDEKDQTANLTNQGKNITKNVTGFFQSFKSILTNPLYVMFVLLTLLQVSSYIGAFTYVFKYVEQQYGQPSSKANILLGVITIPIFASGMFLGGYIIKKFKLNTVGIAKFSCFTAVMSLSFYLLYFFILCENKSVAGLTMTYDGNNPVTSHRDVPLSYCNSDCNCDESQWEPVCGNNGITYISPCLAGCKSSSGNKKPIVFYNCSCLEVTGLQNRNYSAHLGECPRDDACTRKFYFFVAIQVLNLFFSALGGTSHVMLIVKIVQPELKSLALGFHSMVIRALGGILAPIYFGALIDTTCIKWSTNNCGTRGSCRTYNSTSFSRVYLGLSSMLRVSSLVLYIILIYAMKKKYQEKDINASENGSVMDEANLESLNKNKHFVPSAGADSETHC

[15] = Volume of distribution in Beagle dog at 1 mg/kg, iv measured after 24 hrs by LC/MS/MS analysis; type: ADME, organism-based, Canis lupus familiaris; conditions: in vivo
[16] = Half-life in cynomolgus monkey at 5 mg/kg, po measured after 24 hrs by LC/MS/MS analysis; type: ADME, organism-based, Macaca fascicularis; conditions: in vivo
[17] = Toxicity in Beagle dog CNS at 30 mg/kg/day, po measured after 7 days by radiotelemetry; type: organism-based, Canis lupus familiaris; conditions: in vivo, 168 h, time 7 day
[18] = target: T1, Lysophosphatidic acid receptor 1; assay: Antagonist activity at human LPA1 receptor expressed in HEK293 cells assessed as beta-arrestin2 effector recruitment incubated for 10 mins by BRET assay; type: functional, cell-based
[19] = Plasma protein binding in human assessed as unbound fraction at 2 uM incubated for 24 hrs by LC-MS analysis; type: ADME, cell-free
[20] = Drug metabolism in Beagle dog hepatocyte assessed as (R)-1-(2,5-Difluoropyridin-3-yl)ethyl[4-(5-Aminopyridin-2-yl)-1-methyl-1H-1,2,3-triazol-5-yl]carbamate Hydrochloride metabolite formation at 1 uM by LC/MS/MS analysis; type: ADME, Canis lupus familiaris; conditions: hepatocytes
[21] = Unbound drug concentration in CD-1 mouse brain at 2 uM incubated for 5 hrs by LC-MS analysis; type: ADME, tissue-based
[22] = Apparent permeability across apical to basolateral side in cMDR1 knockout MDCK-II cells incubated upto 240 mins by RF-QToF analysis; type: ADME, cell-based, Canis lupus familiaris; conditions: dog

Question: With C[C@@H](OC(=O)Nc1c(-c2ccc(NC(=O)c3cnc(C(F)(F)F)nc3)cn2)nnn1C)c1cc(F)cnc1F as the molecule, how does the Papp B→A at 20 min (BCRP (human)) read?
Answer: Its Papp B→A at 20 min is 12 ×10⁻⁶ cm/s.

Question: And the EC50 [1]?
Answer: Its EC50 is > 10000 nM.

Question: And the fraction unbound at 24 h, 2 µM [2]?
Answer: The fraction unbound at 24 h, 2 µM was 0.095.

Question: What about the AUC(0-t) at 24 h [3] of the same molecule?
Answer: The AUC(0-t) at 24 h was 54 µM·h.

Question: And the EC50 [4]?
Answer: The EC50 was 71 nM.

Question: What about the bioavailability [5] of the same molecule?
Answer: Its bioavailability is 49%.

Question: What about the Activity [6] of the same molecule?
Answer: The Activity was “Non-toxic”.

Question: And the “inhibition (INH)” value (Cytochrome P450 3A4)?
Answer: The value was “Time-dependent-effect”.

Question: And the half-life [7]?
Answer: The half-life was 3.9 h.

Question: And the fraction unbound at 24 h, 2 µM [8]?
Answer: Its fraction unbound at 24 h, 2 µM is 0.066.

Question: What about the EC50 [9] of the same molecule?
Answer: Its EC50 is 38 nM.

Question: What about the IC50 [10] of the same molecule?
Answer: The IC50 was > 30000 nM.

Question: And the CLint scaled at 1 µM [11]?
Answer: The CLint scaled at 1 µM was 7.5 mL/min/kg.

Question: What about the IC50 (Bile salt export pump) of the same molecule?
Answer: Its IC50 is 22000 nM.

Question: And the EC50 [12]?
Answer: The EC50 was 12 nM.

Question: And the “inhibition (INH)” value (Cytochrome P450 2B6)?
Answer: Its value is “Not_active”.

Question: And the “inhibition (INH)” value (Cytochrome P450 2C9)?
Answer: Its value is “Not_active”.

Question: And the Activity [13]?
Answer: The Activity was “Non-toxic”.

Question: What about the IC50 [14] of the same molecule?
Answer: Its IC50 is 13000 nM.

Question: What about the Vd [15] of the same molecule?
Answer: The Vd was 0.4 L/kg.

Question: And the half-life [16]?
Answer: Its half-life is 3.9 h.

Question: What about the Activity [17] of the same molecule?
Answer: Its Activity is “Non-toxic”.

Question: What about the EC50 [18] of the same molecule?
Answer: The EC50 was 134 nM.

Question: What about the fraction unbound at 24 h, 2 µM [19] of the same molecule?
Answer: The fraction unbound at 24 h, 2 µM was 0.14.

Question: What about the Drug metabolism [20] of the same molecule?
Answer: The Drug metabolism was “metabolite_detected”.

Question: And the fraction unbound at 5 h, 2 µM [21]?
Answer: The fraction unbound at 5 h, 2 µM was 0.133.

Question: And the Papp A→B at 4 h [22]?
Answer: Its Papp A→B at 4 h is 11 ×10⁻⁶ cm/s.
